Experiments:
Type in all cases: biochemical
sisMCM (MCM) = molecular target: T1, sisMCM (MCM) (Saccharolobus islandicus, UniProt F0NF15, K280M/K281M); assay: ATPase assay, [γ-32P]ATP, PEI cellulose TLC; settings: 1 mM ATP, 100 nM protein, 10 mM magnesium acetate, pH 8.0, 65°C, 30 min; labelled compound; methylation-mimic mutant
T1 construct: recombinant, pGEX-6P-1 in E. coli BL21(DE3) CodonPlus RIL; GST tag removed with PreScission protease; apparent mass 75 kDa; hexamer

aKMT4 [1] = molecular target: T2, aKMT4 (Saccharolobus islandicus, UniProt F0NBH8, G38R); assay: 3H-methyl incorporation into sisMCM, SDS-PAGE and autoradiography; settings: methyl acceptor sisMCM (2 μM), 50°C, labelled compound, methyltransferase-deficient mutant, no activity seen
T2 construct: gene SiRe_1449; recombinant, overexpressed in E. coli BL21(DE3) CodonPlus RIL; purified as in Niu et al. 2013; apparent mass 18 kDa
T2 sequence (F0NBH8 whole entry G38R): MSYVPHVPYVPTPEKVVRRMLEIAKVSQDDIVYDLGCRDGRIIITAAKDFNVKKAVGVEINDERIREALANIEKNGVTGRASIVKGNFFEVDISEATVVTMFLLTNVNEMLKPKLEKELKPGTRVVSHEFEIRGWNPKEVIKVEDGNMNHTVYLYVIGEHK

aKMT4 [2] = molecular target: T3, aKMT4 (Saccharolobus islandicus, UniProt F0NBH8); assay: as above; settings: methyl acceptor sisMCM (2 μM), also automethylation, 50°C, labelled compound
T3 construct: gene SiRe_1449
T3 sequence (F0NBH8 whole entry): as the sequence (F0NBH8 whole entry G38R) above, with R38G counted along it

T1 sequence (F0NF15 entry or part of it K280M/K281M): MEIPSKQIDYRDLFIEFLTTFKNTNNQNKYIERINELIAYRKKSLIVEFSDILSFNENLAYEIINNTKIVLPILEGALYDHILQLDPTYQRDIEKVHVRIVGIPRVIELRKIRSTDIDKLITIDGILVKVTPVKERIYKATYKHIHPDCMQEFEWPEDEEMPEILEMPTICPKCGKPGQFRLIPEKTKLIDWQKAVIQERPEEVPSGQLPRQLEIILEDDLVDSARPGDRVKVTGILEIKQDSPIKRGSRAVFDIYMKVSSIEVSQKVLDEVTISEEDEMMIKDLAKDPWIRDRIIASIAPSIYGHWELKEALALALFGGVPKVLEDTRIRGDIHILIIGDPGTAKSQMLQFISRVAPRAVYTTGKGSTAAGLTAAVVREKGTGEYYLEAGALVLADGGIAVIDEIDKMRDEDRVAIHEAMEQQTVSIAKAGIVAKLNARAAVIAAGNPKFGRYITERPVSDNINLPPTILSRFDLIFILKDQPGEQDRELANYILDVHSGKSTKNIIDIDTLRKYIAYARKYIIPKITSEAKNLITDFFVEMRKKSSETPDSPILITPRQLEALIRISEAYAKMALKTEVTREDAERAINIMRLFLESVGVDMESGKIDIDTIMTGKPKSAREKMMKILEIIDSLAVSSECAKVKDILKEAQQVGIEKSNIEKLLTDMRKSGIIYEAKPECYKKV

Q: For `Nc1ncnc2c1ncn2[C@@H]1O[C@H](COP(=O)(O)OP(=O)(O)OP(=O)(O)O)[C@@H](O)[C@H]1O` [ATP], which “ATPase assay, [γ-32P]ATP, PEI cellulose TLC” value (sisMCM (MCM)) is on record?
A: As for ATPase, K280M/K281M showed moderately decreased activity as wild type

Q: For `C[S+](CC[C@H](N)C(=O)O)C[C@H]1O[C@@H](n2cnc3c(N)ncnc32)[C@H](O)[C@@H]1O` (stereo partly drawn) [AdoMet], which “3H-methyl incorporation into sisMCM, SDS-PAGE and autoradiography” value (aKMT4 [1]) is on record?
A: no tritium incorporation was observed in the presence of a methyltransferase-deficient mutant aKMT4-G38R

Q: And the “3H-methyl incorporation into sisMCM, SDS-PAGE and autoradiography” value (aKMT4 [2])?
A: We noticed potent ^3H-methyl incorporation into sisMCM protein as well as aKMT4 itself

Reference: publication PMC4639711, “The Helicase Activity of Hyperthermophilic Archaeal MCM is Enhanced at High Temperatures by Lysine Methylation” (Frontiers in Microbiology, 2015)
